In the assay the target is GST-Bc1-2 (Homo sapiens, UniProt P10415). In words: Time Resolved-Fluorescence Resonance Energy Transfer (TR-FRET) Bcl-2 binding assay with F-Bak peptide probe. The settings on record: GST-Bcl-2 1 nM, F-Bak probe 100 nM, Tb-anti-GST 1 nM; '<' = below limit of detection; read-out: TR-FRET Bcl-2 Binding Ki. (TR-FRET usually uses a lanthanide donor and a delayed reading to cut background.)

Ki data for 18 molecules are collected here from patent publication US8580794B2 (AbbVie Inc., priority 2009, dated 2013).

Sequence of GST-Bc1-2 (P10415 whole entry): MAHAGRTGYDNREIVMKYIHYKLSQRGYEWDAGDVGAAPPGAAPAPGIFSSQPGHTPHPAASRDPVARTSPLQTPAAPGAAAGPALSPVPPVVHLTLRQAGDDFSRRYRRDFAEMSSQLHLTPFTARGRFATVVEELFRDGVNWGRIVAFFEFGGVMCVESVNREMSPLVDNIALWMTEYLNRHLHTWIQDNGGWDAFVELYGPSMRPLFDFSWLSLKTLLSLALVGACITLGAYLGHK

Regarding `CC1(C)CCC(CN2CCN(c3ccc(C(=O)NS(=O)(=O)c4cc(F)c(F)c(OCC5(F)CCOCC5)c4)c(Oc4cnc5[nH]ccc5c4)c3)CC2)=C(c2ccc(Cl)cc2)C1` [Example 313, 4-(4-{[2-(4-chlorophenyl)-4,4-dimethylcyclohex-1-en-1-yl]methyl}piperazin-1-yl)-N-({3,4-difluoro-5-[(4-fluorotetrahydro-2H-pyran-4-yl)methoxy]phenyl}sulfonyl)-2-(1H-pyrrolo[2,3-b]pyridin-5-yloxy)benzamide], the inhibition constant (Ki) turned out to be 1.1 nM.

For the molecule `CC1(C)CCC(CC2CCN(c3ccc(C(=O)NS(=O)(=O)c4ccc(NCC5CCOCC5)c([N+](=O)[O-])c4)c(Oc4cnc5[nH]ccc5c4)c3)CC2)=C(c2ccc(Cl)cc2)C1` [Example 315, 4-(4-{[2-(4-chlorophenyl)-4,4-dimethylcyclohex-1-en-1-yl]methyl}piperidin-1-yl)-N-({3-nitro-4-[(tetrahydro-2H-pyran-4-ylmethyl)amino]phenyl}sulfonyl)-2-(1H-pyrrolo[2,3-b]pyridin-5-yloxy)benzamide], the inhibitory constant (Ki) came to 0.052 nM.

For the molecule `CC1(C)CCC(CC2CCN(c3ccc(C(=O)NS(=O)(=O)c4ccc(OCC5CCOCC5)c(Cl)c4)c(Oc4cnc5[nH]ccc5c4)c3)CC2)=C(c2ccc(Cl)cc2)C1` [Example 316, 4-(4-{[2-(4-chlorophenyl)-4,4-dimethylcyclohex-1-en-1-yl]methyl}piperidin-1-yl)-N-{[3-chloro-4-(tetrahydro-2H-pyran-4-ylmethoxy)phenyl]sulfonyl}-2-(1H-pyrrolo[2,3-b]pyridin-5-yloxy)benzamide], the inhibitory constant (Ki) is 0.601 nM.

Take `COC(=O)N1CCOC(CNc2ccc(S(=O)(=O)NC(=O)c3ccc(N4CCN(CC5=C(c6ccc(Cl)cc6)CC(C)(C)CC5)CC4)cc3Oc3cnc4[nH]ccc4c3)cc2[N+](=O)[O-])C1` (stereo not drawn) [Example 317, methyl 2-{[(4-{[4-(4-{[2-(4-chlorophenyl)-4,4-dimethylcyclohex-1-en-1-yl]methyl}piperazin-1-yl)-2-(1H-pyrrolo[2,3-b]pyridin-5-yloxy)benzoyl]sulfamoyl}-2-nitrophenyl)amino]methyl}morpholine-4-carboxylate]: the Ki is less than 0.01 nM.

Consider `CCN(C)C(=O)N1CCOC(CNc2ccc(S(=O)(=O)NC(=O)c3ccc(N4CCN(CC5=C(c6ccc(Cl)cc6)CC(C)(C)CC5)CC4)cc3Oc3cnc4[nH]ccc4c3)cc2[N+](=O)[O-])C1` (stereo not drawn) [Example 318, 2-{[(4-{[4-(4-{[2-(4-chlorophenyl)-4,4-dimethylcyclohex-1-en-1-yl]methyl}piperazin-1-yl)-2-(1H-pyrrolo[2,3-b]pyridin-5-yloxy)benzoyl]sulfamoyl}-2-nitrophenyl)amino]methyl}-N-ethyl-N-methylmorpholine-4-carboxamide], for which the Ki was less than 0.01 nM.

Regarding `CC1(C)CCC(CN2CCN(c3ccc(C(=O)NS(=O)(=O)c4ccc(NCC5CN(S(C)(=O)=O)CCO5)c([N+](=O)[O-])c4)c(Oc4cnc5[nH]ccc5c4)c3)CC2)=C(c2ccc(Cl)cc2)C1` (stereo not drawn) [Example 319, 4-(4-{[2-(4-chlorophenyl)-4,4-dimethylcyclohex-1-en-1-yl]methyl}piperazin-1-yl)-N-{[4-({[4-(methylsulfonyl)morpholin-2-yl]methyl}amino)-3-nitrophenyl]sulfonyl}-2-(1H-pyrrolo[2,3-b]pyridin-5-yloxy)benzamide], the Ki was less than 0.01 nM.

`CC1(C)CCC(CN2CCN(c3ccc(C(=O)NS(=O)(=O)c4ccc(NCCCN(C5CCC5)C5CC5)c([N+](=O)[O-])c4)c(Oc4cnc5[nH]ccc5c4)c3)CC2)=C(c2ccc(Cl)cc2)C1` [Example 320, 4-(4-{[2-(4-chlorophenyl)-4,4-dimethylcyclohex-1-en-1-yl]methyl}piperazin-1-yl)-N-{[4-({3-[cyclobutyl(cyclopropyl)amino]propyl}amino)-3-nitrophenyl]sulfonyl}-2-(1H-pyrrolo[2,3-b]pyridin-5-yloxy)benzamide]: the Ki is less than 0.01 nM.

As for `O=C(NS(=O)(=O)c1ccc(NCC2CCOCC2)c([N+](=O)[O-])c1)c1ccc(N2CCN(CC3=C(c4ccc(Cl)cc4)CCC(F)(F)C3)CC2)cc1Oc1cnc2[nH]ccc2c1` [Example 321, 4-(4-{[2-(4-chlorophenyl)-5,5-difluorocyclohex-1-en-1-yl]methyl}piperazin-1-yl)-N-({3-nitro-4-[(tetrahydro-2H-pyran-4-ylmethyl)amino]phenyl}sulfonyl)-2-(1H-pyrrolo[2,3-b]pyridin-5-yloxy)benzamide], the Ki was less than 0.01 nM.

`CC1(C)CCC(CN2CCN(c3ccc(C(=O)NS(=O)(=O)c4ccc(OCC5(F)CCN(C6COC6)CC5)c(Cl)c4)c(Oc4cnc5[nH]ccc5c4)c3)CC2)=C(c2ccc(Cl)cc2)C1` [Example 322, N-[(3-chloro-4-{[4-fluoro-1-(oxetan-3-yl)piperidin-4-yl]methoxy}phenyl)sulfonyl]-4-(4-{[2-(4-chlorophenyl)-4,4-dimethylcyclohex-1-en-1-yl]methyl}piperazin-1-yl)-2-(1H-pyrrolo[2,3-b]pyridin-5-yloxy)benzamide]: the Ki is less than 0.01 nM.

On to `CC1(C)CCC(CN2CCN(c3ccc(C(=O)NS(=O)(=O)c4ccc(OCC5CCOC5)c(Cl)c4)c(Oc4cnc5[nH]ccc5c4)c3)CC2)=C(c2ccc(Cl)cc2)C1` (stereo not drawn) [Example 323, 4-(4-{[2-(4-chlorophenyl)-4,4-dimethylcyclohex-1-en-1-yl]methyl}piperazin-1-yl)-N-{[3-chloro-4-(tetrahydrofuran-3-ylmethoxy)phenyl]sulfonyl}-2-(1H-pyrrolo[2,3-b]pyridin-5-yloxy)benzamide], for which the inhibition constant Ki stood at 0.104 nM.

`O=C(NS(=O)(=O)c1ccc(NC[C@H]2CC[C@H](O)CC2)c([N+](=O)[O-])c1)c1ccc(N2CCN(CC3=C(c4ccc(Cl)cc4)CCC(F)(F)C3)CC2)cc1Oc1cnc2[nH]ccc2c1` [Example 324, 4-(4-{[2-(4-chlorophenyl)-5,5-difluorocyclohex-1-en-1-yl]methyl}piperazin-1-yl)-N-[(4-{[(trans-4-hydroxycyclohexyl)methyl]amino}-3-nitrophenyl)sulfonyl]-2-(1H-pyrrolo[2,3-b]pyridin-5-yloxy)benzamide]: the inhibition constant (Ki) is less than 0.01 nM.

Regarding `O=C(NS(=O)(=O)c1ccc(OCC2(F)CCOCC2)c(Cl)c1)c1ccc(N2CCN(CC3=C(c4ccc(Cl)cc4)CCC4(CCN(C5COC5)CC4)C3)CC2)cc1Oc1cnc2[nH]ccc2c1` [Example 325, N-({3-chloro-4-[(4-fluorotetrahydro-2H-pyran-4-yl)methoxy]phenyl}sulfonyl)-4-(4-{[9-(4-chlorophenyl)-3-(oxetan-3-yl)-3-azaspiro[5.5]undec-8-en-8-yl]methyl}piperazin-1-yl)-2-(1H-pyrrolo[2,3-b]pyridin-5-yloxy)benzamide], the inhibition constant Ki is less than 0.01 nM.

With `CC1(C)CCC(CN2CCN(c3ccc(C(=O)NS(=O)(=O)c4ccc(NC[C@@H]5CN(C6CC6)CCO5)c([N+](=O)[O-])c4)c(Oc4cnc5[nH]ccc5c4)c3)CC2)=C(c2ccc(Cl)cc2)C1` [Example 326, 4-(4-{[2-(4-chlorophenyl)-4,4-dimethylcyclohex-1-en-1-yl]methyl}piperazin-1-yl)-N-{[4-({[(2R)-4-cyclopropylmorpholin-2-yl]methyl}amino)-3-nitrophenyl]sulfonyl}-2-(1H-pyrrolo[2,3-b]pyridin-5-yloxy)benzamide], the inhibition constant (Ki) is less than 0.01 nM.

With `CC1(C)CCC(CN2CCN(c3ccc(C(=O)NS(=O)(=O)c4ccc(NC[C@H]5CN(C6CC6)CCO5)c([N+](=O)[O-])c4)c(Oc4cnc5[nH]ccc5c4)c3)CC2)=C(c2ccc(Cl)cc2)C1` [Example 327, 4-(4-{[2-(4-chlorophenyl)-4,4-dimethylcyclohex-1-en-1-yl]methyl}piperazin-1-yl)-N-{[4-({[(2S)-4-cyclopropylmorpholin-2-yl]methyl}amino)-3-nitrophenyl]sulfonyl}-2-(1H-pyrrolo[2,3-b]pyridin-5-yloxy)benzamide], the inhibitory constant (Ki) is less than 0.01 nM.

For `O=C(NS(=O)(=O)c1ccc(NCC2CCOCC2)c([N+](=O)[O-])c1)c1ccc(N2CCN(CC3=C(c4ccc(Cl)cc4)CC4(CC3)CC4)CC2)cc1Oc1cnc2[nH]ccc2c1` [Example 328, 4-(4-{[5-(4-chlorophenyl)spiro[2.5]oct-5-en-6-yl]methyl}piperazin-1-yl)-N-({3-nitro-4-[(tetrahydro-2H-pyran-4-ylmethyl)amino]phenyl}sulfonyl)-2-(1H-pyrrolo[2,3-b]pyridin-5-yloxy)benzamide], the inhibition constant Ki is less than 0.01 nM.

`CC1(C)CCC(CN2CCN(c3ccc(C(=O)NS(=O)(=O)c4cnc(OCC5CCC(N(C6CC6)C6COC6)CC5)c(Cl)c4)c(Oc4cnc5[nH]ccc5c4)c3)CC2)=C(c2ccc(Cl)cc2)C1` (stereo not drawn) [Example 329, N-{[5-chloro-6-({4-[cyclopropyl(oxetan-3-yl)amino]cyclohexyl}methoxy)pyridin-3-yl]sulfonyl}-4-(4-{[2-(4-chlorophenyl)-4,4-dimethylcyclohex-1-en-1-yl]methyl}piperazin-1-yl)-2-(1H-pyrrolo[2,3-b]pyridin-5-yloxy)benzamide]: the Ki worked out at 0.03 nM.

In the case of `O=C(NS(=O)(=O)c1ccc(NCC2CN(C3CC3)CCO2)c([N+](=O)[O-])c1)c1ccc(N2CCN(CC3=C(c4ccc(Cl)cc4)CC4(CC3)CC4)CC2)cc1Oc1cnc2[nH]ccc2c1` (stereo not drawn) [Example 330, 4-(4-{[5-(4-chlorophenyl)spiro[2.5]oct-5-en-6-yl]methyl}piperazin-1-yl)-N-[(4-{[(4-cyclopropylmorpholin-2-yl)methyl]amino}-3-nitrophenyl)sulfonyl]-2-(1H-pyrrolo[2,3-b]pyridin-5-yloxy)benzamide], the Ki was less than 0.01 nM.

For `CC1(C)CCC(CN2CCN(c3ccc(C(=O)NS(=O)(=O)c4ccc(OCC5CN(C6CC6)CCO5)c(Cl)c4)c(Oc4cnc5[nH]ccc5c4)c3)CC2)=C(c2ccc(Cl)cc2)C1` (stereo not drawn) [Example 331, N-({3-chloro-4-[(4-cyclopropylmorpholin-2-yl)methoxy]phenyl}sulfonyl)-4-(4-{[2-(4-chlorophenyl)-4,4-dimethylcyclohex-1-en-1-yl]methyl}piperazin-1-yl)-2-(1H-pyrrolo[2,3-b]pyridin-5-yloxy)benzamide], the Ki is 1.09 nM.

In general, Ki refers to a measure of affinity in units of concentration, obtained from inhibition or displacement.
